{"source": "patent US20250319015A1", "about": "“VACCINIUM MACROCARPON EXTRACT AND ANTI-AGEING COSMETIC EFFECTS THEREOF” (SOCIETE INDUSTRIELLE LIMOUSINE D'APPLICATION BIOLOGIQUE, priority 2021, published 2025)", "key": {"Ki-67": {"test_system": "Ki-67", "test": "Ki-67 synthesis in reconstructed epidermises (immunohistofluorescence)", "assay_type": "cell-based, human", "details": "older reconstructed epidermises, 10 μM Retinol", "description": "This study was carried out on normal and older reconstructed epidermises. The epidermal construction was evaluated using a Hematoxylin Eosin (HE) stain and the synthesis of the barrier function markers by immunohistofluorescence. The procedure of the study is described below. […] The epidermides are recovered, fixed, dehydrated, and enclosed in paraffin. Sections (4 μm) are then made using a microtome. […] Viewing is performed using a microscope coupled to an image analysis system. The thickness of the epidermises obtained was measured on the histological sections produced. The rate of the various synthesized markers is proportional to the intensity of green fluorescence present on the reconstructed epidermises. A quantitative analysis of the images was carried out using an image analysis script. The results are expressed in arbitrary units (AU)."}, "[1]": {"test_system": "healthy Caucasian female volunteers", "test": "Transepidermal water losses (Tewameter), Caucasian volunteers", "assay_type": "in vivo, human", "details": "Retinol 0.075%", "experimental": "Transepidermal water losses (TEWL) measurements at the cheeks were carried out using a Tewameter® before and after 21 and 42 days of twice-daily application.\nThis study was carried out on 3 groups of 18 healthy, female volunteers, aged 45 to 66 years and presenting with crow's feet wrinkles. Each of the volunteers applied two of the three formulae to half the face twice-daily in a randomized manner for 42 days."}, "[2]": {"test_system": "human keratinocytes from older donors (≥60 years)", "test": "Gene expression by quantitative PCR on older human keratinocytes", "assay_type": "cell-based", "details": "1 μM Retinol", "description": "(§1) The procedure of the study is described below. The young and older human cells are seeded and incubated at 37° C. […] After several days, the cells are recovered and the total RNA extracted. The RNAs were reverse-transcribed and the complementary DNAs obtained were analyzed by the quantitative PCR technique. The mRNAs of internal reference controls were analyzed in parallel with the mRNAs of the markers involved in the barrier function of the epidermis, in the DEJ and in the dermal matrix. The incorporation of fluorescence is measured continuously using a thermal cycler. The RQ (relative quantification) analysis is performed using software."}, "[3]": {"test_system": "older human fibroblasts by successive replications", "test": "Gene expression by quantitative PCR on older human fibroblasts", "assay_type": "cell-based", "details": "1 μM Retinol", "description": "as §1"}}, "data": [{"smiles": "CC1=C(/C=C/C(C)=C/C=C/C(C)=C/CO)C(C)(C)CCC1", "note": "[Retinol, retinol]", "values": [{"measurement": "Ability to restore Ki-67 synthesis (%)", "setting": "Ki-67", "result": "+71%"}, {"measurement": "Ki-67-positive cells (%)", "setting": "Ki-67; 48 hours", "result": 23, "unit": "%"}, {"measurement": "Water loss, change compared to placebo", "setting": "[1]; D 21", "result": "+24%"}, {"measurement": "Water loss, change compared to placebo", "setting": "[1]; D 21, listed as retinol", "result": "+24%"}, {"measurement": "Water loss, change compared to placebo", "setting": "[1]; D 42", "result": "+15%"}, {"measurement": "Water loss, change compared to placebo", "setting": "[1]; D 42, listed as retinol", "result": "+15%"}, {"measurement": "AQP3: Efficacy of retinol/older control (%)", "setting": "[2]", "result": "+13%"}, {"measurement": "CD44: Efficacy of retinol/older control (%)", "setting": "[2]", "result": "+77%"}, {"measurement": "CLDN1: Efficacy of retinol/older control (%)", "setting": "[2]", "result": "−52", "unit": "%"}, {"measurement": "CXCL8: Efficacy of retinol/older control (%)", "setting": "[2]", "result": "+189%"}, {"measurement": "DSG: Efficacy of retinol/older control (%)", "setting": "[2]", "result": "−99", "unit": "%"}, {"measurement": "FLG: Efficacy of retinol/older control (%)", "setting": "[2]", "result": "−76", "unit": "%"}, {"measurement": "HAS3: Efficacy of retinol/older control (%)", "setting": "[2]", "result": "+425%"}, {"measurement": "IVL: Efficacy of retinol/older control (%)", "setting": "[2]", "result": "+126%"}, {"measurement": "KRT10: Efficacy of retinol/older control (%)", "setting": "[2]", "result": "−97", "unit": "%"}, {"measurement": "LOR: Efficacy of retinol/older control (%)", "setting": "[2]", "result": "−95", "unit": "%"}, {"measurement": "MKI67: Efficacy of retinol/older control (%)", "setting": "[2]", "result": "+44%"}, {"measurement": "S100A7: Efficacy of retinol/older control (%)", "setting": "[2]", "result": "+1384%"}, {"measurement": "S100A8: Efficacy of retinol/older control (%)", "setting": "[2]", "result": "+23%"}, {"measurement": "S100A9: Efficacy of retinol/older control (%)", "setting": "[2]", "result": "+108%"}, {"measurement": "SOD1: Efficacy of retinol/older control (%)", "setting": "[2]", "result": "+7%"}, {"measurement": "TGM1: Efficacy of retinol/older control (%)", "setting": "[2]", "result": "−31", "unit": "%"}, {"measurement": "AQP3 expression (qPCR)", "setting": "[2]; young cells control=100", "result": 69}, {"measurement": "CD44 expression (qPCR)", "setting": "[2]; young cells control=100", "result": 147}, {"measurement": "CLDN1 expression (qPCR)", "setting": "[2]; young cells control=100", "result": 33}, {"measurement": "CXCL8 expression (qPCR)", "setting": "[2]; young cells control=100", "result": 729}, {"measurement": "DSG expression (qPCR)", "setting": "[2]; young cells control=100", "result": 1}, {"measurement": "FLG expression (qPCR)", "setting": "[2]; young cells control=100", "result": 9}, {"measurement": "HAS3 expression (qPCR)", "setting": "[2]; young cells control=100", "result": 357}, {"measurement": "IVL expression (qPCR)", "setting": "[2]; young cells control=100", "result": 120}, {"measurement": "KRT10 expression (qPCR)", "setting": "[2]; young cells control=100", "result": 2}, {"measurement": "LOR expression (qPCR)", "setting": "[2]; young cells control=100", "result": 1}, {"measurement": "MKI67 expression (qPCR)", "setting": "[2]; young cells control=100", "result": 95}, {"measurement": "S100A7 expression (qPCR)", "setting": "[2]; young cells control=100", "result": 564}, {"measurement": "S100A8 expression (qPCR)", "setting": "[2]; young cells control=100", "result": 256}, {"measurement": "S100A9 expression (qPCR)", "setting": "[2]; young cells control=100", "result": 397}, {"measurement": "SOD1 expression (qPCR)", "setting": "[2]; young cells control=100", "result": 95}, {"measurement": "TGM1 expression (qPCR)", "setting": "[2]; young cells control=100", "result": 47}, {"measurement": "ACAN: Efficacy of retinol/older control (%)", "setting": "[3]", "result": "−74", "unit": "%"}, {"measurement": "AQP3: Efficacy of retinol/older control (%)", "setting": "[3]", "result": "+30%"}, {"measurement": "BGN: Efficacy of retinol/older control (%)", "setting": "[3]", "result": "+24%"}, {"measurement": "COL1A1: Efficacy of retinol/older control (%)", "setting": "[3]", "result": "+25%"}, {"measurement": "COL3A1: Efficacy of retinol/older control (%)", "setting": "[3]", "result": "+67%"}, {"measurement": "CXCL8: Efficacy of retinol/older control (%)", "setting": "[3]", "result": "+282%"}, {"measurement": "DCN: Efficacy of retinol/older control (%)", "setting": "[3]", "result": "+7%"}, {"measurement": "ELN: Efficacy of retinol/older control (%)", "setting": "[3]", "result": "+5%"}, {"measurement": "FBN1: Efficacy of retinol/older control (%)", "setting": "[3]", "result": "−1", "unit": "%"}, {"measurement": "HSPG2: Efficacy of retinol/older control (%)", "setting": "[3]", "result": "+3%"}, {"measurement": "IL1: Efficacy of retinol/older control (%)", "setting": "[3]", "result": "+151%"}, {"measurement": "LUM: Efficacy of retinol/older control (%)", "setting": "[3]", "result": "−3", "unit": "%"}, {"measurement": "MMP1: Efficacy of retinol/older control (%)", "setting": "[3]", "result": "−24", "unit": "%"}, {"measurement": "POSTN: Efficacy of retinol/older control (%)", "setting": "[3]", "result": "+24%"}, {"measurement": "TGFβ1: Efficacy of retinol/older control (%)", "setting": "[3]", "result": "+8%"}, {"measurement": "VEGFA: Efficacy of retinol/older control (%)", "setting": "[3]", "result": "+2%"}, {"measurement": "ACAN expression (qPCR)", "setting": "[3]; young cells control=100", "result": 10}, {"measurement": "AQP3 expression (qPCR)", "setting": "[3]; young cells control=100", "result": 73}, {"measurement": "BGN expression (qPCR)", "setting": "[3]; young cells control=100", "result": 78}, {"measurement": "COL1A1 expression (qPCR)", "setting": "[3]; young cells control=100", "result": 79}, {"measurement": "COL3A1 expression (qPCR)", "setting": "[3]; young cells control=100", "result": 72}, {"measurement": "CXCL8 expression (qPCR)", "setting": "[3]; young cells control=100", "result": 803}, {"measurement": "DCN expression (qPCR)", "setting": "[3]; young cells control=100", "result": 89}, {"measurement": "ELN expression (qPCR)", "setting": "[3]; young cells control=100", "result": 63}, {"measurement": "FBN1 expression (qPCR)", "setting": "[3]; young cells control=100", "result": 90}, {"measurement": "HSPG2 expression (qPCR)", "setting": "[3]; young cells control=100", "result": 90}, {"measurement": "IL1 expression (qPCR)", "setting": "[3]; young cells control=100", "result": 567}, {"measurement": "LUM expression (qPCR)", "setting": "[3]; young cells control=100", "result": 87}, {"measurement": "MMP1 expression (qPCR)", "setting": "[3]; young cells control=100", "result": 164}, {"measurement": "POSTN expression (qPCR)", "setting": "[3]; young cells control=100", "result": 56}, {"measurement": "TGFβ1 expression (qPCR)", "setting": "[3]; young cells control=100", "result": 103}, {"measurement": "VEGFA expression (qPCR)", "setting": "[3]; young cells control=100", "result": 93}]}]}
